“And” between values parts separate entries of the source, which are not always exact repeats. Equal entries are not always repeated.
Assays:
PYR1^4F / ΔN-HAB1 = molecular target: T1, PYR1^4F / ΔN-HAB1 (Arabidopsis thaliana, UniProt O49686, A160G/F159V/H115Q/Y120G); test: Ligand/receptor-mediated PP2C (ΔN-HAB1 phosphatase) inhibition, PYR1^4F; assay type: biochemical
T1 construct: 6xHis (N); made in house; host or cells: E. coli BL21 (DE3) pLysS
T1 sequence (O49686 with tags, fused parts or gaps H115Q/Y120G/F159V/A160G): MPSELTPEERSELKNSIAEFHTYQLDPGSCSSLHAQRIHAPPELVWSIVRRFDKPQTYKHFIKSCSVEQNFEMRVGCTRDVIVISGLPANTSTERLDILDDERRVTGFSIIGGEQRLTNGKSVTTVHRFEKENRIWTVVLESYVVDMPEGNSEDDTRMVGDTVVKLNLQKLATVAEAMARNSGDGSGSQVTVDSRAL
T1 sequence (Q9CAJ0 179-511 partner): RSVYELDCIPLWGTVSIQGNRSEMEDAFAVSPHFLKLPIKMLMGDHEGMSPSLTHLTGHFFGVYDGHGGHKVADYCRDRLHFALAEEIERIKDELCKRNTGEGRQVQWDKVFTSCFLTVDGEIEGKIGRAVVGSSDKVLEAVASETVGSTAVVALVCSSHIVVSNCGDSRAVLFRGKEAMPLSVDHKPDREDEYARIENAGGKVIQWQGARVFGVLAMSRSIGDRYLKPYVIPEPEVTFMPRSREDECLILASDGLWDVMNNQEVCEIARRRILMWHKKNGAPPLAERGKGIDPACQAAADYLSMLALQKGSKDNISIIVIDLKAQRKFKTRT
Procedure: Coding sequences of the cannabinoid sensors were cloned into the protein expression vector pET28a to encode 6×His-tag-receptor fusions. Constructs were sequenced and transformed into the BL21 (DE3) pLysS E. coli strain for heterologous expression with IPTG (1 mM), followed by purification, using affinity chromatography, as previously reported. In vitro validation of evolved sensors was performed by using recombinant sensors and ΔN-HAB1 (HAB1 Δ1–178, ref. [36]) proteins, as previously described. […] Cannabinoid concentration curves ranged from 4 to 10,000 nM, and median inhibitory concentrations for PP2C inhibition were obtained via fluorescent measurement in the presence of 1 mM 4-methylumbelliferyl phosphate.

PYR1^WIN-M = molecular target: T2, PYR1^WIN-M (Arabidopsis thaliana, UniProt O49686, A160I/D26G/E4G/F159A/H60P/K59Q/N90S/Y23H); test: ELISA-like plate assay, immobilized PYR1^WIN-M, biotinylated ΔN-HAB1^T+; assay type: binding; conditions: replicates
T2 construct: made in house
T2 sequence (O49686 with tags, fused parts or gaps E4G/Y23H/D26G/K59Q/H60P/N90S/F159A/A160I): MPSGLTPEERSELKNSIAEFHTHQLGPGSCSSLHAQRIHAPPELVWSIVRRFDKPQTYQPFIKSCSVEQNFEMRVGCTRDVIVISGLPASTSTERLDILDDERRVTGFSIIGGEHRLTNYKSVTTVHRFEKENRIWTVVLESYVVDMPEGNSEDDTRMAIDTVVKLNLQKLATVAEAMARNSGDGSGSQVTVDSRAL

PYR1^4F [1] = molecular target: T3, PYR1^4F (Arabidopsis thaliana, UniProt O49686, A160G/F159V/H115Q/Y120G); test: Split NanoLuc luciferase complementation in yeast, NLuc^N-PYR1^4F/NLuc^C-ΔN-HAB1; assay type: cell-based; set-up: >PYR1-4FMDMB; expressed in transfected cells; host or cells: Saccharomyces cerevisiae BY4742
T3 sequence (O49686 with tags, fused parts or gaps H115Q/Y120G/F159V/A160G): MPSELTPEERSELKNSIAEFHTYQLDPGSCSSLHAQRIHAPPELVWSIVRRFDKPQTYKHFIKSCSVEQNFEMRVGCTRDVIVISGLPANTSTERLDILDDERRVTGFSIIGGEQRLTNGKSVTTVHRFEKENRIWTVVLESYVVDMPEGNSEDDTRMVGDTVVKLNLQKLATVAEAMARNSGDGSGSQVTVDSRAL
T3 sequence (Q9CAJ0 179-511 partner): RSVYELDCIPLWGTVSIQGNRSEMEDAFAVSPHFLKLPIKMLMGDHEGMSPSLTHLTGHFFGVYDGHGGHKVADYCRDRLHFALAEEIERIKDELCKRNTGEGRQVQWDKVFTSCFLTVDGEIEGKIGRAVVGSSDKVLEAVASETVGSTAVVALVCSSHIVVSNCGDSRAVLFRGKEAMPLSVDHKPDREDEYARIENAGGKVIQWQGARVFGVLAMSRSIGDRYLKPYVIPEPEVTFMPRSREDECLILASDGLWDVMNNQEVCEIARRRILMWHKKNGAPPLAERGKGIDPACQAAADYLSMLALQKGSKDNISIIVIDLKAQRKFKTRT

PYR1^4F [2] = molecular target: T3, PYR1^4F; test: Yeast transcriptional activation circuit Z4-PYR1/VP64-ΔN-HAB1, GFP reporter, PYR1^4F
PYR1^M (H60P, N90S) = molecular target: T4, PYR1^M (H60P, N90S) (Arabidopsis thaliana, UniProt O49686, H60P/N90S); test: ELISA-like plate assay, immobilized PYR1^M, biotinylated ΔN-HAB1^T+, streptavidin-HRP; assay type: binding; conditions: for ELISA signal generation, positive control (source data): PYR1^M tested with ABA, replicates, listed as + CNTRL
T4 construct: made in house; host or cells: E. coli (pET derivatives)
T4 sequence (O49686 1-191 H60P/N90S): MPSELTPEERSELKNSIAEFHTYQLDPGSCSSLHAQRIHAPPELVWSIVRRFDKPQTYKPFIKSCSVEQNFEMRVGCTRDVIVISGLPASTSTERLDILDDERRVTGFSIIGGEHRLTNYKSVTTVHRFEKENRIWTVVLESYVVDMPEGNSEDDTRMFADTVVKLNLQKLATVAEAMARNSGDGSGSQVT
T4 sequence (Q9CAJ0 179-511 C186S/R199A/D204A/S209V/H248S/F260E/C274S/D287K/S292N/S342A/M358I/N377A/R422E/N439S/M483K partner): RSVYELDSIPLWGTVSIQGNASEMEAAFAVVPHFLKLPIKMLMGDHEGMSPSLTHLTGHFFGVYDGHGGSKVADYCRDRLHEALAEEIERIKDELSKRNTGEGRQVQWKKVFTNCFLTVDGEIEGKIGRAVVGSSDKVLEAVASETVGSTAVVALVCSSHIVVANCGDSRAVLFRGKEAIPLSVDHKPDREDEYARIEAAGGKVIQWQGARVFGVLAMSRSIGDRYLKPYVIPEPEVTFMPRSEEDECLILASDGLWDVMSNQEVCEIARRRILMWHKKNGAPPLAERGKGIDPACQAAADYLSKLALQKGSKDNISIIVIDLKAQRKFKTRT

PYR1^DIAZI [3] = molecular target: T5, PYR1^DIAZI (Arabidopsis thaliana, UniProt O49686, A160V/E8G/F108Y/F159G/L87M/M158V/V81Y); test: Yeast transcriptional activation circuit Z4-PYR1/VP64-ΔN-HAB1, GFP reporter, PYR1^DIAZI; conditions: read-out: EC50, yeast transcription circuit; PYR1^DIAZI, off-target ligand
PYR1^DIAZI [4] = molecular target: T5, PYR1^DIAZI; test: Split NanoLuc luciferase complementation in yeast, NLuc^N-PYR1^DIAZI/NLuc^C-HAB1; assay type: cell-based; set-up: >PYR1-DIAZI; expressed in transfected cells; host or cells: Saccharomyces cerevisiae BY4742; conditions: Figure 4f(top), 3 replicates

T5 sequence (O49686 other isoform, or with tags, fused parts or gaps E8G/V81Y/L87M/F108Y/M158V/F159G/A160V, one chain of several): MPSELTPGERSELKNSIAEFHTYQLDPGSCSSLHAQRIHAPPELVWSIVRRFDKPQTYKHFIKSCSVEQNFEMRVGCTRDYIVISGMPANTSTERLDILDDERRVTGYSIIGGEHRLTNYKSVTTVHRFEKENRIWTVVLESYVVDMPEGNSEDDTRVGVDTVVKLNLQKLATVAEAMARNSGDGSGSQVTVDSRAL

`COC(=O)C(NC(=O)c1nn(CCCCF)c2ccccc12)C(C)(C)C` (stereo not drawn) [4F-MDMB, 4F-MDMB-BUTINACA] was tested, and the EC50 (PYR1^4F / ΔN-HAB1) was 0.102 µM, the “ELISA signal generation, receptor cross-reactivity (source data)” value (PYR1^WIN-M; cannabinoid at 2 nM) was 0.813 and 0.154 and 0.125 and the “ELISA signal generation, receptor cross-reactivity (source data)” value (PYR1^WIN-M; cannabinoid at 2 μM) was 0.116 and 0.117 and 0.101. For the same compound, the EC50 (PYR1^4F [1]) was 0.025 µM and the EC50 (PYR1^4F [2]) was 0.023 µM.
`CC1=CC(=O)CC(C)(C)[C@@]1(O)/C=C/C(C)=C\C(=O)O` [ABA, abscisic acid] was tested, and the “ELISA signal generation, positive control (source data)” value (PYR1^M (H60P, N90S); 2 nM) was 2.266 and 2.046 and 2.24, the “ELISA signal generation, positive control (source data)” value (PYR1^M (H60P, N90S); 2 μM) was 3.553 and 3.555 and 3.41 and the “Amax [AU 450 nm]” value (PYR1^M (H60P, N90S); global fit, PYR1M/ABA/ΔN-HAB1T+ system, Biorep 1-3) was 2 AU 450 nm and 2.8 AU 450 nm. For the same compound, the Kd (PYR1^M (H60P, N90S); global fit, PYR1M/ABA/ΔN-HAB1T+ system, Biorep 1-3, read-out: KD1) was 0.82 µM and 0.78 µM and 2.09 µM.
With `CCOP(=S)(OCC)SCn1nnc2ccccc2c1=O` [Azinphos-ethyl, azinphos-ethyl] the EC50 (PYR1^DIAZI [3]) was 1.1 µM, the “Sensor signal (Figure 4f top), replicate values” (from here on “Sensor signal (Figure 4f top)”) (PYR1^DIAZI [4]; [Agonist] 1e-5 nM) was 19.1784 and 9.602 and 15.5607 and the “Sensor signal (Figure 4f top)” value (PYR1^DIAZI [4]; [Agonist] 0.5 nM) was 28.6964 and 14.557 and 20.4786. The “Sensor signal (Figure 4f top)” value (PYR1^DIAZI [4]; [Agonist] 1 nM) was 22.2741 and 20.8671 and 16.0353, the “Sensor signal (Figure 4f top)” value (PYR1^DIAZI [4]; [Agonist] 10 nM) was 14.152 and 32.187 and 17.3809 and the “Sensor signal (Figure 4f top)” value (PYR1^DIAZI [4]; [Agonist] 100 nM) was 20.787 and 38.118 and 25.3718. The “Sensor signal (Figure 4f top)” value (PYR1^DIAZI [4]; [Agonist] 1000 nM) was 52.3582 and 54.3696 and 50.5941, the “Sensor signal (Figure 4f top)” value (PYR1^DIAZI [4]; [Agonist] 10000 nM) was 95.7293 and 70.2485 and 89.5341 and the “Sensor signal (Figure 4f top)” value (PYR1^DIAZI [4]; [Agonist] 100000 nM) was 109.007 and 68.7025 and 93.3077.

— paper PMC9750858, “Rapid biosensor development using plant hormone receptors as reprogrammable scaffolds” (Nature Biotechnology, 2022)
